Test results published in US6743895B1, “Bone stimulating factor” (Osteopharm Inc., priority 1995, dated 2004).
Residues, ends and D or L forms follow the SMILES beside them. No end group written: not given here.

Tests used:
ovariectomized rats [1] = test: Full autopsy after four week administration to ovariectomized rats; assay type: in vivo, Sprague-Dawley rats; details: 100 μg s.c. every 24 hours for 28 days
Description: The six ovariectomized rats were injected subcutaneously with 100 μl of a 0.1% acetic acid solution containing 100 μg of the chemically synthesized peptide (SEQ ID NO:1) every 24 hours for 28 days. On day 25, a tetracycline hydrochloride solution was injected intramuscularly into each rat so as to give 24 mg per Kg of body weight, as described previously. On day 27, a second dose of tetracycline hydrochloride was injected and the rats were sacrificed on the 28th day.
Post-mortem blood was taken by cardiac puncture and serum frozen until analyzed. A full autopsy was performed on each rat.

rats = test: Bone mineral apposition rate in intact rats after subcutaneous injection of polypeptide, tetracycline labelling; assay type: in vivo, Sprague-Dawley rats
Description: Experiments were carried out on three groups of six rats weighing between 295 and 320 g. A 1 mg per ml solution of the modified peptide (SEQ ID NO:3) was prepared in 0.1% acetic acid. A 1 mg per ml solution of the normal peptide (SEQ ID NO:1) was prepared in 0.1% acetic acid. Each rat of a first of the groups had subcutaneously injected into its right thigh 0.1 ml of the modified peptide solution. Similarly, each rat of the second group was injected with 0.1 ml of the normal peptide solution. Each rat of the third group, the control group, was injected with 0.1 ml of 0.1% acetic acid solution. Immediately following these injections, each rat was injected intramuscularly with 24 mg per Kg body weight of tetracycline hydrochloride dissolved in 0.5 ml of water. A second dose of tetracycline hydrochloride was administered 48 hours later. The animals were sacrificed 24 hours after the second dose by CO2 narcosis. The lower metaphysis of the right femur was dissected out and fixed in a 10% aqueous solution of formaldehyde buffered at pH 7.2 by acetate buffer. Bone sections were prepared for measurement as described above.
Sprague-Dawley rats were used as test animals to determine bone mineral apposition rate, as described above. Male rats having weights between 280 and 380 g were subject to subcutaneous injection after one week of acclimatization. Each animal was injected with 200 μl of a 0.1% acetic acid test solution, solutions having been prepared at concentrations to obtain a dosage of about 25 nmol of polypeptide per animal. Each test dose was immediately followed by intramuscular injection of 24 mg per Kg of body weight of tetracycline hydrochloride. A second injection of tetracycline was made 48 hours later.
Bone mineral apposition rates were determined by measurements of the lower metaphysis of the right femur, as described previously. Results obtained in the two sets of experiments are summarized in Tables Seven and Eight and graphically depicted in FIGS. 8 and 9.
Bone mineral apposition rates were again determined by measurement of the lower metaphysis of the right femur. Results obtained are summarized in Table Nineteen and graphically depicted in FIG. 12. […]
In a final set of experiments, a polypeptide having the ninth amino acid, cysteine, replaced by the amino acid tyrosine, SEQ ID NO:43, was synthesized and tested for bone stimulatory activity. Four rats (about 300 grams) were each administered with 100 nmoles of material (in 400 μl 20 mM acetic acid solution) by subcutaneous injection along with tetracycline (5 mg per animal in 400 μl water), as described above. A second dosage of tetracycline was administered 48 hours later and the animals sacrificed 24 hours after that. The lower metaphysis of the right femur was examined to determine the bone mineral apposition rate. For comparison, experiments were performed using a control in which no compound was present in the acetic acid solution.

ovariectomized rats [2] = test: Bone mineral (calcium) content by DEXA in ovariectomized rats; assay type: in vivo, rat; details: 25 nmoles s.c. each day
Description: Ovariectomies were performed on rats as described above. A 0.1% acetic acid solution containing 25 nmoles of the polypeptide was administered subcutaneously to each rat each day for the duration of the experiment. […] Another group of rats was treated for eight weeks beginning eight weeks after ovariectomization. Rats were sacrificed at the end of the treatment period and dissected and post mortem assessment of bone mineral content was carried out. The lumbar spines L1-L4 were cleaned with a power nylon brush to remove the attached muscle. They were placed ventral side down under 3 cm of distilled water in a polypropylene container and scanned by a dual energy x-ray absorptometer (DEXA). Hologic 100, to determine the calcium content in grams. The right femur of each rat was also dissected out intact and cleared of the attached muscles with a power nylon brush. It was scanned dorsal side down under 3 cm of distilled water by DEXA. Four regions of the femur were scanned, as indicated in FIGS. 10 and 11: A, proximal end; B, diaphysis; C, distal end; and D, neck. The bone mineral (i.e., calcium) content in grams was estimated in the four zones of the femur based on absorption and using an internal standard of the machine.

[3] = Stability of dissolved polypeptides (capillary electrophoresis, RP-HPLC); assay type: physicochemical; details: 37° C.
Description: Each of the polypeptides having the sequences identified as SEQ ID NO: 7 and 24 was dissolved in 5 mM acetic acid to a final concentration of 1 mg/ml and incubated at 37° C. The peptide compositions were analyzed weekly by capillary electrophoresis on a P/ACE 6000 system (Beckman) using 50 mM sodium phosphate pH 2.5 as the running buffer on a 57 cm long×75 μm internal diameter capillary. The incubated peptide (20 μl) was diluted with 80 μl of running buffer, placed in a 500 μl vial prior to injection onto the P/ACE using pressure for 20 seconds. Following electrophoresis of the incubated peptide at 30 kV for 15 min a second run was carried out using freshly dissolved peptide as a control.
Each of the polypeptides was dissolved in 20 mM sodium phosphate pH 3.0, 20 mM ammonium acetate pH 4.0, 20 mM ammonium acetate pH 5.0, 20 mM MES pH 6.0, 20 mM sodium phosphate pH 7.0, 20 mM sodium phosphate pH 7.5, 20 mM sodium phosphate pH 8.0, 20 mM ammonium acetate pH 8.5 or 20 mM ammonium acetate pH 9.5 to a final concentration of 1 mg/ml. The peptide was incubated at 37° C. and the peptide assayed weekly by separation on P/ACE as described above. Some samples were separated by RP-HPLC and the isolated peaks subjected to mass spectroscopic analysis.
The protected polypeptide identified as SEQ ID NO:24 was dissolved in 20 mM or 250 mM ammonium acetate pH 4.5 to a final concentration of 1 mg/ml. In some experiments the buffer was supplemented with 20 mM EDTA. The peptide solution was then incubated at −70° C., −20° C., 4° C. or room temperature (22° C.). Samples were assayed weekly by electrophoresis on the P/ACE as described above and/or by RP-HPLC.
The stability of each of the polypeptides having the amino acid sequences identified as SEQ ID NOs: 25, 26 and 27 was tested as described above.

Full autopsy findings (ovariectomized rats [1]) | Molecule | Mean Bone Apposition Rate (rats; about 125 nmoles of polypeptide per Kg of body weight (Table Twenty)) | Bone mineral apposition rate, Mean (rats; male Sprague-Dawley rats 280-380 g, about 25 nmol per animal s.c., first set (Table Seven)) | Bone Mineral Content Measured in Distal End of Femur, Mean (ovariectomized rats [2]; Administered over 56 Days) | Bone Mineral Content Measured in Femoral Diaphysis, Mean (ovariectomized rats [2]; Administered over 56 Days) | Bone Mineral Content Measured in Femoral Neck, Mean (ovariectomized rats [2]; Administered over 56 Days) | Bone Mineral Content Measured in Proximal End of Femur, Mean (ovariectomized rats [2]; Administered over 56 Days) | Bone Mineral Content Measured in Spine L1-L4, Mean (ovariectomized rats [2]; Administered over 56 Days) | Bone Mineral Content Measured in Distant End of Femur, Mean (ovariectomized rats [2]; Administered over 100 Days) | Bone Mineral Content Measured in Femoral Diaphysis, Mean (ovariectomized rats [2]; Administered over 100 Days) | Bone Mineral Content Measured in Femoral Neck, Mean (ovariectomized rats [2]; Administered over 100 Days) | Bone Mineral Content Measured in Proximal End of Femur, Mean (ovariectomized rats [2]; Administered over 100 Days) | Bone Mineral Content Measured in Spine L1-L4, Mean (ovariectomized rats [2]; Administered over 100 Days) | Stability when dissolved in dilute acids ([3]; 5 mM acetic acid, 1 mg/ml, analyzed weekly by capillary electrophoresis) | pH at which the peptide was most stable ([3]; 20 mM buffers pH 3.0 to 9.5, 1 mg/ml)
No ill effects were observed | CC[C@H](C)[C@H](NC(=O)CN)C(=O)NCC(=O)N[C@@H](CCCCN)C(=O)N[C@@H](CCCNC(=N)N)C(=O)N[C@H](C(=O)N[C@@H](CC(N)=O)C(=O)N[C@@H](CCC(=O)O)C(=O)N[C@@H](Cc1c[nH]cn1)C(=O)N[C@H](C(=O)N[C@@H](C)C(=O)N[C@@H](CC(=O)O)C(=O)N[C@@H](CS)C(=O)N[C@@H](CCCCN)C(=O)N[C@H](C(=O)N[C@@H](CCCCN)C(=O)N1CCC[C@H]1C(=O)N[C@@H](CC(N)=O)C(=O)N[C@H](C(=O)N[C@@H](CC(C)C)C(=O)N[C@@H](Cc1c[nH]cn1)C(=O)N[C@@H](CCCCN)C(=O)N[C@@H](CCCCN)C(=O)N[C@@H](C)C(=O)N[C@@H](C)C(=O)N[C@@H](CCC(=O)O)C(=O)N[C@H](C(=O)N[C@@H](CC(C)C)C(=O)N[C@@H](CCSC)C(=O)N[C@H](C(=O)N[C@@H](CC(C)C)C(=O)N[C@@H](CC(=O)O)C(=O)N[C@@H](CCC(N)=O)C(=O)N[C@@H](CC(N)=O)C(=O)N[C@@H](CCC(N)=O)C(=O)N1CCC[C@H]1C(=O)O)C(C)C)[C@@H](C)O)[C@@H](C)O)[C@@H](C)CC)[C@@H](C)O)[C@@H](C)O [SEQ ID NO:1] (H-GIGKRTNEHTADCKIKPNTLHKKAAETLMVLDQNQP-OH) | – | – | – | – | – | – | – | – | – | – | – | – | – | –
– | GIGKRTNEHTADCKI [SEQ ID NO:7] | 2.18 μm/day | 1.41 μm per day | 0.1347 g | 0.2091 g | 0.0274 g | 0.1328 g | 0.4606 g | 0.1424 g | 0.2347 g | 0.0351 g | 0.1411 g | 0.4758 g | degraded overtime | 4.5
